These results are taken from patent publication EP0284935A1, “5-Substituted quinolone- and naphthyridone carboxylic acid derivatives” (BAYER AG, priority 1987, dated 1988).

Values after ≈ are worked out from the molar mass of the structure shown.

Common to all, as to test: Agar dilution test, minimum inhibitory concentration
What all share (format): cell-based
Background: In agar dilution, organisms are placed on agar that contains the substance at set levels.

One assay relates to E.coli Neumann. As to conditions: Escherichia coli; test strain E.coli Neumann; Isosensitest-Agar (Oxoid), inoculum ca. 10^4 germs per inoculation point; read-out: Minimale Hemmkonzentrationen.
Another assay deals with E.coli 455/7. The settings on record: Escherichia coli; test strain E.coli 455/7; Isosensitest-Agar (Oxoid), inoculum ca. 10^4 germs per inoculation point; read-out: Minimale Hemmkonzentrationen.
For a further assay, the system named is E.coli A261. The settings on record: Escherichia coli; test strain E.coli A261; Isosensitest-Agar (Oxoid), inoculum ca. 10^4 germs per inoculation point; read-out: Minimale Hemmkonzentrationen.
Another assay deals with Klebsiella 63. As to conditions: test strain Klebsiella 63; Isosensitest-Agar (Oxoid), inoculum ca. 10^4 germs per inoculation point; read-out: Minimale Hemmkonzentrationen.
The test system of another assay is Klebsiella 8085. As to conditions: test strain Klebsiella 8085; Isosensitest-Agar (Oxoid), inoculum ca. 10^4 germs per inoculation point; read-out: Minimale Hemmkonzentrationen.
The next assay deals with Proteus mir. 8223. As to conditions: test strain Proteus mir. 8223; Isosensitest-Agar (Oxoid), inoculum ca. 10^4 germs per inoculation point; read-out: Minimale Hemmkonzentrationen.
A further assay has as its system Proteus vulg. 1017. As to conditions: test strain Proteus vulg. 1017; Isosensitest-Agar (Oxoid), inoculum ca. 10^4 germs per inoculation point; read-out: Minimale Hemmkonzentrationen.
Another assay has as its system Morg. morg. 932. The settings on record: test strain Morg. morg. 932; Isosensitest-Agar (Oxoid), inoculum ca. 10^4 germs per inoculation point; read-out: Minimale Hemmkonzentrationen.
The next assay deals with Morg. morg. 11006. The settings on record: test strain Morg. morg. 11006; Isosensitest-Agar (Oxoid), inoculum ca. 10^4 germs per inoculation point; read-out: Minimale Hemmkonzentrationen.
In another assay the test system is Providencia 12012. The settings on record: test strain Providencia 12012; Isosensitest-Agar (Oxoid), inoculum ca. 10^4 germs per inoculation point; read-out: Minimale Hemmkonzentrationen.
A further assay relates to Providencia 12052. As to conditions: test strain Providencia 12052; Isosensitest-Agar (Oxoid), inoculum ca. 10^4 germs per inoculation point; read-out: Minimale Hemmkonzentrationen.
For a further assay, the system named is Serratia 16040. The settings on record: test strain Serratia 16040; Isosensitest-Agar (Oxoid), inoculum ca. 10^4 germs per inoculation point; read-out: Minimale Hemmkonzentrationen.
A further assay relates to Staph. FK 422. As to conditions: test strain Staph. FK 422; Isosensitest-Agar (Oxoid), inoculum ca. 10^4 germs per inoculation point; read-out: Minimale Hemmkonzentrationen.
The test system of a further assay is Staph. 1756. As to conditions: test strain Staph. 1756; Isosensitest-Agar (Oxoid), inoculum ca. 10^4 germs per inoculation point; read-out: Minimale Hemmkonzentrationen.
The subject of a further assay is Staph. 133. As to conditions: test strain Staph. 133; Isosensitest-Agar (Oxoid), inoculum ca. 10^4 germs per inoculation point; read-out: Minimale Hemmkonzentrationen.
The subject of another assay is Enteroc. 27101. As to conditions: test strain Enteroc. 27101; Isosensitest-Agar (Oxoid), inoculum ca. 10^4 germs per inoculation point; read-out: Minimale Hemmkonzentrationen.
A further assay has as its system Enteroc. 9790. As to conditions: test strain Enteroc. 9790; Isosensitest-Agar (Oxoid), inoculum ca. 10^4 germs per inoculation point; read-out: Minimale Hemmkonzentrationen.
For the next assay, the system named is Pseudomonas Walter. The settings on record: test strain Pseudomonas Walter; Isosensitest-Agar (Oxoid), inoculum ca. 10^4 germs per inoculation point; read-out: Minimale Hemmkonzentrationen.
The subject of the next assay is Pseudomonas Ellsworth. As to conditions: test strain Pseudomonas Ellsworth; Isosensitest-Agar (Oxoid), inoculum ca. 10^4 germs per inoculation point; read-out: Minimale Hemmkonzentrationen.
The subject of the next assay is Proteus mir. 8175. As to conditions: test strain Proteus mir. 8175; Isosensitest-Agar (Oxoid), inoculum ca. 10^4 germs per inoculation point; read-out: Minimale Hemmkonzentrationen.

`CN1CCN(c2c(F)c(N)c3c(=O)c(C(=O)O)cn(C4CC4)c3c2F)CC1` [Beispiel 19, 5-Amino-1-cyclopropyl-6,8-difluor-1,4-dihydro-7-(4-methyl-1-piperanyl)-4-oxo-3-chinolincarbonsäure]: the MIC with E.coli Neumann worked out at 0.03 µg/mL (≈ 0.0793 µM); in the assay on E.coli 455/7 it was 1 µg/mL (≈ 2.64 µM); with E.coli A261, 0.25 µg/mL (≈ 0.661 µM); in the assay with Klebsiella 63 it was 0.03 µg/mL (≈ 0.0793 µM); in the assay with Klebsiella 8085, 0.03 µg/mL (≈ 0.0793 µM); in the assay with Proteus mir. 8223, 0.25 µg/mL (≈ 0.661 µM). Besides, the MIC in the assay with Proteus vulg. 1017 was determined as 0.06 µg/mL (≈ 0.159 µM); in the assay on Morg. morg. 932, 0.03 µg/mL (≈ 0.0793 µM); in the assay on Morg. morg. 11006 it was 0.06 µg/mL (≈ 0.159 µM); in the assay with Providencia 12012 it was 0.06 µg/mL (≈ 0.159 µM); in the assay on Providencia 12052 it was 1 µg/mL (≈ 2.64 µM); in the assay with Serratia 16040, 4 µg/mL (≈ 10.6 µM). Besides, the MIC is 0.03 µg/mL (≈ 0.0793 µM) in the assay with Staph. FK 422; 0.06 µg/mL (≈ 0.159 µM) in the assay on Staph. 1756; 0.06 µg/mL (≈ 0.159 µM) in the assay on Staph. 133; 0.25 µg/mL (≈ 0.661 µM) in the assay on Enteroc. 27101; 0.25 µg/mL (≈ 0.661 µM) in the assay with Enteroc. 9790; 0.5 µg/mL (≈ 1.32 µM) in the assay on Pseudomonas Walter. In addition, the MIC with Pseudomonas Ellsworth stood at 0.06 µg/mL (≈ 0.159 µM).
Turning to `Nc1c(F)c(N2CCOCC2)c(F)c2c1c(=O)c(C(=O)O)cn2C1CC1` [Beispiel 26, 5-Amino-1-cyclopropyl-6,8-difluor-1,4-dihydro-7-morpholino-4-oxo-3-chinolincarbonsäure], the MIC in the assay on E.coli Neumann turned out to be 0.03 µg/mL (≈ 0.0821 µM); in the assay with E.coli 455/7, 16 µg/mL (≈ 43.8 µM); in the assay with E.coli A261 it was 4 µg/mL (≈ 10.9 µM); in the assay with Klebsiella 63, 0.06 µg/mL (≈ 0.164 µM); in the assay with Klebsiella 8085, 0.06 µg/mL (≈ 0.164 µM); with Proteus mir. 8223, 0.5 µg/mL (≈ 1.37 µM). Also, the MIC is 0.03 µg/mL (≈ 0.0821 µM) with Proteus vulg. 1017; 0.03 µg/mL (≈ 0.0821 µM) with Morg. morg. 932; 0.06 µg/mL (≈ 0.164 µM) with Providencia 12012; 8 µg/mL (≈ 21.9 µM) with Providencia 12052; 8 µg/mL (≈ 21.9 µM) in the assay on Serratia 16040; 0.03 µg/mL (≈ 0.0821 µM) with Staph. FK 422. Further, the MIC amounted to 0.03 µg/mL (≈ 0.0821 µM) with Staph. 1756; 0.03 µg/mL (≈ 0.0821 µM) in the assay on Staph. 133; 0.25 µg/mL (≈ 0.684 µM) in the assay with Enteroc. 27101; 0.25 µg/mL (≈ 0.684 µM) in the assay on Enteroc. 9790; 2 µg/mL (≈ 5.47 µM) in the assay on Pseudomonas Walter; 0.03 µg/mL (≈ 0.0821 µM) in the assay with Pseudomonas Ellsworth.
With `Nc1c(F)c(-n2ccnc2)c(F)c2c1c(=O)c(C(=O)O)cn2C1CC1` [Beispiel 30, 5-Amino-1-cyclopropyl-6,8-difluor-1,4-dihydro-7-(1-imidazolyl)-4-oxo-3-chinolincarbonsäure-methansulfonat], the MIC was found to be 0.03 µg/mL (≈ 0.0866 µM) in the assay on E.coli Neumann; 16 µg/mL (≈ 46.2 µM) with E.coli 455/7; 2 µg/mL (≈ 5.78 µM) in the assay on E.coli A261; 0.06 µg/mL (≈ 0.173 µM) in the assay with Klebsiella 63; 0.03 µg/mL (≈ 0.0866 µM) in the assay with Klebsiella 8085; 2 µg/mL (≈ 5.78 µM) with Proteus mir. 8223. For the same compound, the MIC was found to be 0.06 µg/mL (≈ 0.173 µM) with Proteus mir. 8175; 0.06 µg/mL (≈ 0.173 µM) in the assay on Morg. morg. 11006; 4 µg/mL (≈ 11.6 µM) in the assay with Providencia 12052; 8 µg/mL (≈ 23.1 µM) with Serratia 16040; 0.03 µg/mL (≈ 0.0866 µM) with Staph. 133; 0.25 µg/mL (≈ 0.722 µM) in the assay on Enteroc. 27101. Further, the MIC with Enteroc. 9790 was determined as 0.25 µg/mL (≈ 0.722 µM); in the assay on Pseudomonas Walter, 2 µg/mL (≈ 5.78 µM); with Pseudomonas Ellsworth, 0.25 µg/mL (≈ 0.722 µM).
